# Where two headings read alike, the source gives them in different places.
# Assays:
# Experiment in all cases: Test B pre-/postemergence plant response
# Assay type in all cases: in vivo
# [1] = tested on: lambsquarters (Chenopodium album); conditions: for Lambsquarters plant response rating: 8 g ai/ha; for pest or weed control at 16 g/ha / pest or weed control at 31 g/ha / pest or weed control at 62 g/ha: Chenopodium album, read-out: Plant response rating, Lambsquarters; for pest or weed control at 16 g/ha: 16 g ai/ha; for pest or weed control at 31 g/ha: 31 g ai/ha; for pest or weed control at 62 g/ha: 62 g ai/ha
# Procedure, shortened: (§1)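 Preemergence and postemergence (plants 2-18 cm, 1- to 4-leaf stage) applications used test chemicals in a non-phytotoxic solvent with surfactant. Plants were held in a greenhouse 13 to 15 days, then rated visually against controls on a 0-100 scale (0 no effect, 100 complete control).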
# [2] = tested on: giant foxtail (Setaria faberii); conditions: for Foxtail, Giant plant response rating: 8 g ai/ha; for pest or weed control at 16 g/ha / pest or weed control at 31 g/ha / pest or weed control at 62 g/ha: Setaria faberi, read-out: Plant response rating, Foxtail, Giant; for pest or weed control at 16 g/ha: 16 g ai/ha; for pest or weed control at 31 g/ha: 31 g ai/ha; for pest or weed control at 62 g/ha: 62 g ai/ha
# Procedure, shortened: as §1
# [3] = tested on: woolly cupgrass (Eriochloa villosa); conditions: for Cupgrass, Woolly plant response rating: 8 g ai/ha; for pest or weed control at 16 g/ha / pest or weed control at 31 g/ha / pest or weed control at 62 g/ha: Eriochloa villosa, read-out: Plant response rating, Cupgrass, Woolly; for pest or weed control at 16 g/ha: 16 g ai/ha; for pest or weed control at 31 g/ha: 31 g ai/ha; for pest or weed control at 62 g/ha: 62 g ai/ha
# Procedure, shortened: as §1
# [4] = tested on: Russian thistle (Salsola iberica); conditions: Preemergence
# Procedure, shortened: as §1
# [5] = tested on: wheat (Triticum aestivum); conditions: for Wheat plant response rating: 8 g ai/ha; for plant injury at 16 g/ha: 16 g ai/ha; for plant injury at 62 g/ha: 62 g ai/ha
# Procedure, shortened: as §1
# [6] = tested on: yellow nutsedge (Cyperus esculentus); conditions: for Nutsedge, Yellow plant response rating: 8 g ai/ha; for pest or weed control at 16 g/ha / pest or weed control at 31 g/ha / pest or weed control at 62 g/ha: Cyperus, read-out: Plant response rating, Nutsedge, Yellow; for pest or weed control at 16 g/ha: 16 g ai/ha; for pest or weed control at 31 g/ha: 31 g ai/ha; for pest or weed control at 62 g/ha: 62 g ai/ha
# Procedure, shortened: as §1
# [7] = tested on: green foxtail (Setaria viridis); conditions: for Foxtail, Green plant response rating: 8 g ai/ha; for pest or weed control at 16 g/ha / pest or weed control at 31 g/ha / pest or weed control at 62 g/ha: Setaria viridis, read-out: Plant response rating, Foxtail, Green; for pest or weed control at 16 g/ha: 16 g ai/ha; for pest or weed control at 31 g/ha: 31 g ai/ha; for pest or weed control at 62 g/ha: 62 g ai/ha
# Procedure, shortened: as §1
# [8] = post-emergence, Postemergence, scale 0 to 100
# [9] = post-emergence, Postemergence, scale 0 to 100, 0 no effect, 100 complete control
# [10] = pre-emergence, Preemergence, scale 0 to 100 (0 no effect, 100 complete control)
# [11] = pre-emergence, Preemergence, 0 to 100 scale, 0 no effect, 100 complete control
# [12] = pre-emergence, Preemergence, scale 0 to 100
structure (smiles),measurement,setting,value
"CCc1c(C)c(-c2ccc(Cl)cc2)nn1-c1c(O)cnn(C)c1=O [Compound 26, 4-[3-(4-chlorophenyl)-5-ethyl-4-methyl-1H-pyrazol-1-yl]-5-hydroxy-2-methyl-3(2H)-pyridazinone]",Lambsquarters plant response rating,"[1]; postemergence, 0-100 scale",0
same,pest or weed control at 16 g/ha,[1]; [8],0%
same,pest or weed control at 31 g/ha,[1]; [9],0%
same,pest or weed control at 62 g/ha,[1]; [9],0%
same,pest or weed control at 16 g/ha,[1]; [10],0%
same,pest or weed control at 31 g/ha,[1]; [11],0%
same,pest or weed control at 62 g/ha,[1]; [12],0%
same,Lambsquarters plant response rating,"[1]; Preemergence, scale 0 to 100",0
same,"Foxtail, Giant plant response rating","[2]; postemergence, 0-100 scale",80
same,"Foxtail, Giant plant response rating","[2]; Preemergence, scale 0 to 100",65
same,pest or weed control at 16 g/ha,[2]; [8],95%
same,pest or weed control at 31 g/ha,[2]; [9],95%
same,pest or weed control at 62 g/ha,[2]; [9],100%
same,pest or weed control at 16 g/ha,[2]; [10],95%
same,pest or weed control at 31 g/ha,[2]; [11],100%
same,pest or weed control at 62 g/ha,[2]; [12],100%
same,"Cupgrass, Woolly plant response rating","[3]; postemergence, 0-100 scale",85
same,pest or weed control at 16 g/ha,[3]; [8],95%
same,pest or weed control at 31 g/ha,[3]; [9],98%
same,pest or weed control at 62 g/ha,[3]; [9],98%
same,pest or weed control at 16 g/ha,[3]; [10],70%
same,pest or weed control at 31 g/ha,[3]; [11],85%
same,pest or weed control at 62 g/ha,[3]; [12],100%
same,"Cupgrass, Woolly plant response rating","[3]; Preemergence, scale 0 to 100",20
same,"Plant response rating, Russian Thistle","[4]; 16 g ai/ha, scale 0 to 100 (0 no effect, 100 complete control)",0
same,"Plant response rating, Russian Thistle","[4]; 31 g ai/ha, 0 to 100 scale, 0 no effect, 100 complete control",0
same,"Plant response rating, Russian Thistle","[4]; 62 g ai/ha, scale 0 to 100",0
same,Russian Thistle plant response rating,"[4]; 8 g ai/ha, scale 0 to 100",0
same,Wheat plant response rating,"[5]; postemergence, 0-100 scale",0
same,Wheat plant response rating,"[5]; Preemergence, scale 0 to 100",0
same,plant injury at 16 g/ha,"[5]; Triticum aestivum, post-emergence, Postemergence, scale 0 to 100, read-out: Plant response rating, Wheat",0%
same,plant injury at 62 g/ha,"[5]; Triticum aestivum, post-emergence, Postemergence, scale 0 to 100, 0 no effect, 100 complete control, read-out: Plant response rating, Wheat",5%
same,plant injury at 16 g/ha,"[5]; Triticum aestivum, pre-emergence, Preemergence, scale 0 to 100 (0 no effect, 100 complete control), read-out: Plant response rating, Wheat",0%
same,plant injury at 31 g/ha,"[5]; Triticum aestivum, pre-emergence, Preemergence, 31 g ai/ha, 0 to 100 scale, 0 no effect, 100 complete control, read-out: Plant response rating, Wheat",0%
same,plant injury at 62 g/ha,"[5]; Triticum aestivum, pre-emergence, Preemergence, scale 0 to 100, read-out: Plant response rating, Wheat",0%
same,"Nutsedge, Yellow plant response rating","[6]; postemergence, 0-100 scale",0
same,pest or weed control at 16 g/ha,[6]; [8],0%
same,pest or weed control at 31 g/ha,[6]; [9],0%
same,pest or weed control at 62 g/ha,[6]; [9],0%
same,pest or weed control at 16 g/ha,[6]; [10],0%
same,pest or weed control at 31 g/ha,[6]; [11],0%
same,pest or weed control at 62 g/ha,[6]; [12],0%
same,"Nutsedge, Yellow plant response rating","[6]; Preemergence, scale 0 to 100",0
same,"Foxtail, Green plant response rating","[7]; postemergence, 0-100 scale",60
same,"Foxtail, Green plant response rating","[7]; Preemergence, scale 0 to 100",98
same,pest or weed control at 16 g/ha,[7]; [8],80%
same,pest or weed control at 31 g/ha,[7]; [9],80%
same,pest or weed control at 62 g/ha,[7]; [9],98%
same,pest or weed control at 16 g/ha,[7]; [10],100%
same,pest or weed control at 31 g/ha,[7]; [11],100%
same,pest or weed control at 62 g/ha,[7]; [12],100%
